pIC50: −log10 of the molar value.

The first experiment addresses FmlH (Escherichia coli, UniProt Q1RBS0). The class given is binding, Escherichia coli (UPEC, CFT073). The conditions noted are these: ELISA IC50 ratio.
Take `COc1ccc(C(=O)O)cc1-c1ccccc1O[C@@H]1O[C@H](CO)[C@H](O)[C@H](O)[C@H]1NC(C)=O` [Compound 31, 2’-(((2S,3R,4R,5R,6R)-3-Acetamido-4,5-dihydroxy-6 (hydroxymethyl)tetrahydro-2H-pyran-2-yl)oxy)-6-methoxy-[1,1’- biphenyl]-3-carboxylic Acid]: the “fold drop in activity relative to 1” value turned out to be 6 fold.

Turning to `CC(=O)N[C@H]1[C@H](Oc2ccccc2-c2cccc(NS(C)(=O)=O)c2)O[C@H](CO)[C@H](O)[C@@H]1O` [Compound 50, N-((2S,3R,4R,5R,6R)-4,5-Dihydroxy-6-(hydroxymethyl)-2-((3’- (methylsulfonamido)-[1,1’-biphenyl]-2-yl)oxy)tetrahydro-2H-pyran-3-yl)acetamide], the “fold greater potency / improvement in activity relative to 1” value is reported as 3 fold.

The experiment is the same for the next values; noted with them: ELISA IC50 ratio; 50 vs 51, 30 vs 29.
As for `CC(=O)N[C@H]1[C@H](Oc2ccccc2-c2cccc(NS(C)(=O)=O)c2)O[C@H](CO)[C@H](O)[C@@H]1O` [Compound 50, N-((2S,3R,4R,5R,6R)-4,5-Dihydroxy-6-(hydroxymethyl)-2-((3’- (methylsulfonamido)-[1,1’-biphenyl]-2-yl)oxy)tetrahydro-2H-pyran-3-yl)acetamide], the “fold more potent than the matched pair Gal/GalNAc derivative” value is “about 5 fold”.

On to `O=C(O)c1cc(-c2ccccc2O[C@@H]2O[C@H](CO)[C@H](O)[C@H](O)[C@H]2O)cc([N+](=O)[O-])c1` [Compound 30, 5-Nitro-2’-(((2S,3R,4S,5R,6R)-3,4,5-trihydroxy-6-(hydroxymethyl)-tetrahydro-2H-pyran-2-yl)oxy)-[1,1’-biphenyl]-3-carboxylic Acid], for which the “fold more potent than the matched pair Gal/GalNAc derivative” value is listed as 6 fold.

The experiment is the same for the next values; noted with them: IC50, ELISA, FmlH binding to desialylated bovine submaxillary mucin; average of four or more replicates.
Compound `CC(=O)N[C@H]1[C@H](Oc2cccc(C#N)c2-c2cccc(NS(C)(=O)=O)c2)O[C@H](CO)[C@H](O)[C@@H]1O` [Compound 79, N-((2S,3S,4R,5R)-2-((6-Cyano-3’-(methylsulfonamido)-[1,1’-bi-phenyl]-2-yl)oxy)-4,5-dihydroxy-6-(hydroxymethyl)tetra’hydro-2H-pyran-3-yl)acetamide] gave a pIC50 of 7.36.

Regarding `CC(=O)NC1[C@H](Oc2cccc(C)c2-c2cccc(NS(=O)(=O)N(C)C)c2)O[C@H](CO)[C@H](O)[C@@H]1O` (stereo in doubt) [Compound 87, N-((2S,3S,4R,5R)-2-((3’-((N,N-Dimethylsulfamoyl)amino)-6-methyl-[1,1’-biphenyl]-2-yl)oxy)-4,5-dihydroxy-6-(hydroxymethyl)-tetrahydro-2H-pyran-3-yl)acetamide], the pIC50 is 7.11. In turn, `COc1ccc(C(=O)O)cc1-c1ccccc1O[C@@H]1O[C@H](CO)[C@H](O)[C@H](O)[C@H]1NC(C)=O` [Compound 31, 2’-(((2S,3R,4R,5R,6R)-3-Acetamido-4,5-dihydroxy-6 (hydroxymethyl)tetrahydro-2H-pyran-2-yl)oxy)-6-methoxy-[1,1’- biphenyl]-3-carboxylic Acid] gave a pIC50 of 5.41. In the case of `CC(=O)N[C@H]1[C@H](Oc2ccccc2-c2cccc(NS(C)(=O)=O)c2)O[C@H](CO)[C@H](O)[C@@H]1O` [Compound 50, N-((2S,3R,4R,5R,6R)-4,5-Dihydroxy-6-(hydroxymethyl)-2-((3’- (methylsulfonamido)-[1,1’-biphenyl]-2-yl)oxy)tetrahydro-2H-pyran-3-yl)acetamide], the pIC50 was 6.64.

As to `O=C(O)c1cc(-c2ccccc2O[C@@H]2O[C@H](CO)[C@H](O)[C@H](O)[C@H]2O)cc([N+](=O)[O-])c1` [Compound 30, 5-Nitro-2’-(((2S,3R,4S,5R,6R)-3,4,5-trihydroxy-6-(hydroxymethyl)-tetrahydro-2H-pyran-2-yl)oxy)-[1,1’-biphenyl]-3-carboxylic Acid], the pIC50 is 6.55. Still for that read-out and setting: as for `COc1ccc(OS(C)(=O)=O)cc1-c1ccccc1O[C@@H]1O[C@H](CO)[C@H](O)[C@H](O)[C@H]1NC(C)=O` [Compound 35, 2’-(((2S,3R,4R,5R,6R)-3-Acetamido-4,5-dihydroxy-6 (hydroxymethyl)tetrahydro-2H-pyran-2-yl)oxy)-6-methoxy-[1,1’-biphenyl]-3-yl Methanesulfonate], the figure is 5.43. The same measure, in the same setting: with `CC(=O)N[C@H]1[C@H](Oc2ccccc2-c2cc(C(=O)O)cc([N+](=O)[O-])c2)O[C@H](CO)[C@H](O)[C@@H]1O` [Compound 29, 2’-(((2S,3S/4R/5R)-3-Acetamido-4,5-dihydroxy-6-(hydroxymethyl)tetrahydro-2H-pyran-2-yl)oxy)-5-nitro-[1, 1’-bi-phenyl]-3-carboxylic Acid] the figure was 5.66; with `CC(=O)N[C@H]1[C@H](Oc2ccccc2-c2cccc(OS(C)(=O)=O)c2)O[C@H](CO)[C@H](O)[C@@H]1O` [Compound 33, 2’-(((2S,3R,4R,5R,6R)-3-Acetamido-4,5-dihydroxy-6-(hydroxymethyl)tetrahydro-2H-pyran-2-yl)oxy)-[1,1’-biphenyl]-3-yl methanesulfonate], 6.05; with `CS(=O)(=O)Nc1cccc(-c2ccccc2O[C@@H]2O[C@H](CO)[C@H](O)[C@H](O)[C@H]2O)c1` [Compound 51, N-(2’-(((2S,3R,4S,5R,6R)-3,4,5-Trihydroxy-6-(hydroxymethyl)-tetrahydro-2H-pyran-2-yl)oxy)-[1,1’-biphenyl]-3-yl)-methanesulfonamide], 5.80. `CC(=O)N[C@H]1[C@H](Oc2ccccc2-c2cccc([N+](=O)[O-])c2)O[C@H](CO)[C@H](O)[C@@H]1O` [Compound 38, N-((2S,3R,4R,5R,6R)-4,5-Dihydroxy-6-(hydroxymethyl)-2-((3’-nitro-[1,1’-biphenyl]-2-yl)oxy)tetrahydro-2H-pyran-3-yl)acetamide] gave a pIC50 of 5.57.

In turn, `COC(=O)Nc1cccc(-c2ccccc2O[C@@H]2O[C@H](CO)[C@H](O)[C@H](O)[C@H]2NC(C)=O)c1` [Compound 45, Methyl(2’-(((2S,3R/4R/5R,6R)-3-Acetamido-4/5-dihydroxy-6-(hydroxymethyl)tetrahydro-2H-pyran-2-yl)oxy)-[1,1’-biphenyl]-3 yl)carbamate] showed a pIC50 of 6.20.

For `CNC(=O)c1cccc(-c2ccccc2O[C@@H]2O[C@H](CO)[C@H](O)[C@H](O)[C@H]2NC(C)=O)c1` [Compound 47, 2’-(((2S,3R,4R,5R,6R)-3-Acetamido-4,5-dihydroxy-6-(hydroxymethyl)tetrahydro-2H-pyran-2-yl)oxy)-N-methyl-[1,1’-bi-phenyl]-3-carboxamide], the pIC50 is 5.47. The compound `CC(=O)N[C@H]1[C@H](Oc2ccccc2-c2cccc(C(=O)N(C)C)c2)O[C@H](CO)[C@H](O)[C@@H]1O` [Compound 46, 2’-(((2S,3R,4R,5R,6R)-3-Acetamido-4,5-dihydroxy-6-(hydroxymethyl)tetrahydro-2H-pyran-2-yl)oxy)-N,N-dimethyl-[1,1’- biphenyl]-3-carboxamide] gave a pIC50 of 5.51.

`CC(=O)N[C@H]1[C@H](Oc2cccc(C(=O)OCc3ccccc3)c2-c2cccc(NS(C)(=O)=O)c2)O[C@H](CO)[C@H](O)[C@@H]1O` [Compound 81, Benzyl6-(((2S,3S,4R,5R)-3-Acetamido-4,5-dihydroxy-6-(hydroxymethyl)tetrahydro-2H-pyran-2-yl)oxy)-3’-(methylsulfona-mido)-[1,1’-biphenyl]-2-carboxylate] showed a negative-log IC50 (pIC50) of 7.05. As for `CC(=O)N[C@H]1[C@H](Oc2ccccc2-c2cccc(S(C)(=O)=O)c2)O[C@H](CO)[C@H](O)[C@@H]1O` [Compound 41, N-((2S,3R,4R,5R,6R)-4,5-Dihydroxy-6-(hydroxymethyl)-2-((3’- (methylsulfonyl)-[1,1’-biphenyl]-2-yl)oxy)tetrahydro-2H-pyran-3-yl)acetamide], the pIC50 is 6.15. For `CC(=O)N[C@H]1[C@H](Oc2ccccc2-c2cccc(NS(=O)(=O)C(F)(F)F)c2)O[C@H](CO)[C@H](O)[C@@H]1O` [Compound 49, N-((2S,3R,4R,5R,6R)-4,5-Dihydroxy-6-(hydroxymethyl)-2-((3’-((trifluoromethyl)sulfonamido)-[1,1’-biphenyl]-2-yl)oxy)-tetrahydro-2H-pyran-3-yl)acetamide], the pIC50 is 5.96. The same measure, in the same setting: as for `CC(=O)N[C@H]1[C@H](Oc2ccccc2-c2cccc(C(N)=O)c2)O[C@H](CO)[C@H](O)[C@@H]1O` [Compound 48, 2’-(((2S,3R,4R,5R,6R)-3-Acetamido-4,5-dihydroxy-6 (hydroxymethyl)tetrahydro-2H-pyran-2-yl)oxy)-[1,1’-biphenyl]-3-carboxamide], the figure is 5.80; as for `CC(=O)N[C@H]1[C@H](Oc2ccccc2-c2cccc(C(F)(F)F)c2)O[C@H](CO)[C@H](O)[C@@H]1O` [Compound 40, N-((2S,3R,4R/5R/6R)-4/5-Dihydroxy-6-(hydroxymethyl)-2-((3’-(tri-fluoromethyl)-[1,1’-biphenyl]-2-yl)oxy)tetrahydro-2H-pyran-3-yl) acetamide], 5.82; as for `COc1cccc(-c2ccccc2O[C@@H]2O[C@H](CO)[C@H](O)[C@H](O)[C@H]2NC(C)=O)c1` [Compound 37, N-((2S,3R,4R,5R,6R)-4,5-Dihydroxy-6-(hydroxymethyl)-2-((3’-me-thoxy-[1,1’-biphenyl]-2-yl)oxy)tetrahydro-2H-pyran-3-yl)-acetamide], 5.70.

Turning to `CC(=O)N[C@H]1[C@H](Oc2ccc3ccccc3c2-c2cccc(NS(C)(=O)=O)c2)O[C@H](CO)[C@H](O)[C@@H]1O` [Compound 85, N-((2S,3R,4R,5R,6R)-4,5-Dihydroxy-6-(hydroxymethyl)-2-((1-(3 (methylsulfonamido)phenyl)naphthalen-2-yl)oxy)tetrahydro-2H-pyran-3-yl)acetamide], the pIC50 was 7.09. The compound `COc1cccc(O[C@@H]2O[C@H](CO)[C@H](O)[C@H](O)[C@H]2NC(C)=O)c1-c1cccc(NS(C)(=O)=O)c1` [Compound 83, N-((2S,3S,4R,5R)-4,5-Dihydroxy-6-(hydroxymethyl)-2-((6-me-thoxy-3 ‘-(methylsulfonamido)-[1,1 ‘-biphenyl]-2-yl)oxy)tetrahydro-2H-pyran-3-yl)acetamide] showed a pIC50 of 7.04. Still for that read-out and setting: with `CC(=O)N[C@H]1[C@H](Oc2ccccc2-c2cccc(O)c2)O[C@H](CO)[C@H](O)[C@@H]1O` [Compound 32, N-((2S,3R,4R,5R,6R)-4,5-Dihydroxy-2-((3’-hydroxy-[1,1’ biphenyl]-2-yl)oxy)-6-(hydroxymethyl)tetrahydro-2H-pyran-3-yl)-acetamide] the figure was 6.15; with `CC(=O)N[C@H]1[C@H](Oc2cccc([N+](=O)[O-])c2-c2cccc(NS(C)(=O)=O)c2)O[C@H](CO)[C@H](O)[C@@H]1O` [Compound 78, N-((2S,3R,4R,5R,6R)-4,5-Dihydroxy-6-(hydroxymethyl)-2-((3’- (methylsulfonamido)-6-nitro-[1,1’-biphenyl]-2-yl)oxy)tetrahydro-2H-pyran-3-yl)acetamide], 7.24. Take `CC(=O)Nc1cccc(-c2ccccc2O[C@@H]2O[C@H](CO)[C@H](O)[C@H](O)[C@H]2NC(C)=O)c1` [Compound 43, N-(2’-(((2S,3R,4R,5R,6R)-3-Acetamido-4,5-dihydroxy-6-(hydroxymethyl)tetrahydro-2H-pyran-2-yl)oxy)-[1,1’-biphenyl]-3-yl)acetamide]: the negative-log IC50 (pIC50) was 6.51.

The compound `Cc1cccc(O[C@@H]2O[C@H](CO)[C@H](O)[C@H](O)[C@H]2NS(C)(=O)=O)c1-c1cccc(NS(C)(=O)=O)c1` [Compound 89, N-((2S,3R,4R,5R,6R)-4,5-Dihydroxy-6-(hydroxymethyl)-2-((6-methyl-3’-(methylsulfonamido)-[1,1’-biphenyl]-2-yl)oxy)-tetrahydro-2H-pyran-3-yl)methanesulfonamide] showed a negative-log IC50 (pIC50) of 5.46.

(Values after PMC6467771 (Journal of medicinal chemistry, 2019).)
